# Measured values taken from patent US5280047A, “2-(4-substituted)phenylmethylene derivatives and methods of use” (G. D. Searle & Co., priority 1993, dated 1994).
# “And” between values parts separate entries of the source, which are not always exact repeats. Identical values can stand only once.
# Molecular target: T1, 5-lipoxygenase (Rattus norvegicus, UniProt P12527)
# T1 construct: supernatant fraction of Rat Basophilic Leukemia Cell Homogenate (RBL-1) serves as a 5-lipoxygenase enzyme source; endogenous in cells; host or cells: RBL-1 (rat basophilic leukemia) cells, 100,000 x g supernatant of the homogenate
# T1 sequence (P12527 1-673): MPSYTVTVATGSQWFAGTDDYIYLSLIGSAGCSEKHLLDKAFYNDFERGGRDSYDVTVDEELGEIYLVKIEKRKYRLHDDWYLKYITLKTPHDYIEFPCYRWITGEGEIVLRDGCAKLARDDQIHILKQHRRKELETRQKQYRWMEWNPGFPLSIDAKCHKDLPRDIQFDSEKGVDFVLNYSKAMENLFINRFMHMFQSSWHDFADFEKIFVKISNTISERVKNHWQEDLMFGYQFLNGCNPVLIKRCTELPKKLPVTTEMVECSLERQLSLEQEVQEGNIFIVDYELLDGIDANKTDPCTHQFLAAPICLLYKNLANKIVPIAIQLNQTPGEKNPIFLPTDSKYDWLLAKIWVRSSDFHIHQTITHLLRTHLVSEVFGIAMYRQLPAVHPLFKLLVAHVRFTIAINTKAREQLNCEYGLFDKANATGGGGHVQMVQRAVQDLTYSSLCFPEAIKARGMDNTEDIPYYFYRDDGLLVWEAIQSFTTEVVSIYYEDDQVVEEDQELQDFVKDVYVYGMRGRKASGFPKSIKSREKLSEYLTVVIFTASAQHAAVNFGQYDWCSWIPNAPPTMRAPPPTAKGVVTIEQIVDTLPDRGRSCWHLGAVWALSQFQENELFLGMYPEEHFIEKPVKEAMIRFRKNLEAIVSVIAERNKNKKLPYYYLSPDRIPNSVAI
# Assay: Inhibition of 5-lipoxygenase, in vitro (5-HETE synthesis, RBL-1 100,000 x g supernatant)
# Format: biochemical
# Conditions: not given
# Method: The compounds of the invention are evaluated with respect to 5-lipoxygenaseinhibition according to the following assay procedure.
# Inhibition of 5-lipoxygenase, in vitro : anti-inflammatory, anti-allergy activities.
# The 100,000 x g supernatant fraction of Rat Basophilic Leukemia Cell Homogenate (RBL-1) serves as a 5-lipoxygenase enzyme source. The enzyme is incubated with [1-^14 C)-arachidonic acid and Ca++ in the presence and absence of test compound. The product of 5-lipoxygenase, 5-hydroxyeicosatetraenoic acid (5-HETE), is separated by thin-layer chromatography and measured by radioactivity.
# When more than one result is listed, this indicates the results from additional tests.
row,Structure (SMILES),IC50 [µM]
1,"CCCCCCCCc1ccc(/C=C/C(C)=O)cc1 [Example 8, 4-(4-octylphenyl)-3E-buten-2-one]",100

# Same assay, conditions: Rat Basophilic Leukemia Cell Homogenate (RBL-1) supernatant; [1-14C]-arachidonic acid and Ca++; several values = results from additional tests; read-out: 5-Lipoxygenase Inhibition IC50
row,IC50,Structure (SMILES)
1,47 µM,"CCOC(=O)/C(=C/c1ccc(Cl)cc1)C(C)=O [Example 6E, Ethyl 2E-[(4-chlorophenyl)methylene]-3-oxobutanoate]"
2,56 µM,"CCOC(=O)/C(=C\c1ccc(Cl)cc1)C(C)=O [Example 6F, Ethyl 2Z-[(4-chlorophenyl)methylene]-3-oxobutanoate]"
3,78 µM,"CCOC(=O)/C(=C\c1ccc([N+](=O)[O-])cc1)C(C)=O [Example 7H, Ethyl 2Z-[(4-nitrophenyl)methylene]-3-oxobutanoate]"
4,74 µM,"CCOC(=O)/C(=C/c1ccc([N+](=O)[O-])cc1)C(C)=O [Example 7G, Ethyl 2E-[(4-nitrophenyl)methylene]-3-oxobutanoate]"

# The remaining lines, values behind:
row,Structure (SMILES),IC50
1,"CCCCCCc1ccc(/C=C(/C(C)=O)C(=O)c2ccccc2)cc1 [Example 2, 2Z-[(4-hexylphenyl)methylene]-1-phenyl-1,3-butanedione]",18 µM
2,"CCCCCCCCc1ccc(/C=C(\C(C)=O)C(=O)OCC)cc1 [Example 3C, Ethyl 2E-[(4-octylphenyl)methylene]-3-oxobutanoate]",5.9 µM and 14 µM
3,"CCCCCCCCc1ccc(C=C(C(C)=O)C(C)=O)cc1 [Example 5, 3-[(4-octylphenyl)methylene]-2,4-pentanedione]",4.4 µM
4,"CCCCCCc1ccc(/C=C(\C(C)=O)C(=O)OCC)cc1 [Example 1A, Ethyl 2E-[(4-hexylphenyl)methylene]-3-oxobutanoate]",3 µM and 7.9 µM and 15 µM
5,"CCCCCCc1ccc(/C=C/C(C)=O)cc1 [Example 9, 4-(4-hexylphenyl)-3E-buten-2-one]",100 µM
6,"CCCCCCc1ccc(C=C(C(=O)OCC)C(=O)OCC)cc1 [Example 10, Diethyl 2-[(4-hexylphenyl)methylene]propanedioate]",100 µM
7,"CCCCCCc1ccc(/C=C(/C(C)=O)C(=O)OCC)cc1 [Example 1B, Ethyl 2Z-[(4-hexylphenyl)methylene]-3-oxobutanoate]",7.6 µM and 5.9 µM

# Same assay, conditions: at 100 μM; RBL-1 supernatant, 5-HETE synthesis
row,inhibition at 100 µM [%],Structure (SMILES)
1,45.6,"CCCCCCCCc1ccc(C=C(C(=O)OCC)C(=O)OCC)cc1 [Example 4, Diethyl 2-[(4-octylphenyl)methylene]propanedioate]"
2,42,"CCCCCCCCc1ccc(/C=C(/C(C)=O)C(=O)OCC)cc1 [Example 3D, Ethyl 2Z-[(4-octylphenyl)methylene]-3-oxobutanoate]"
